Assay results from the supplement of paper PMC4858399.
Structures can show the parent of a compound that is named as a salt.

Columns and labels:
[1] = tested on: Caenorhabditis elegans N2; assay: lowest effective concentration for larval growth inhibition (size below effect threshold); higher = less potent; conditions: exposure time 48 h
How it was run: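 C. elegans N2 L1 larvae (50 per 96-well) were grown 48 h at 20°C in K-medium with killed bacteria, 1% DMSO and 0.5, 1, 5, 10, 50, 100 or 200 µM chemical. The Biosort measured per-worm extinction as size, and these were log-transformed into well means. The lowest effective concentration is the first dose where the plate-adjusted mean size drops under the 5.665 threshold and stays under it at higher doses.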

[2] = tested on: Caenorhabditis elegans N2; assay: mean nematode size ln(EXT) after 48 h, plate-adjusted (DMSO control set to 6) (ln(EXT), control-adjusted); higher = larger nematodes / less growth inhibition; conditions: exposure time 48 h
How it was run: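 Synchronised C. elegans N2 L1 larvae (50 per well, 4–6 wells per treatment) were grown for 48 h at 20°C in K-medium with killed OP50, 1% DMSO and 0.5–200 µM chemical. The Biosort measured each worm's extinction, and debris was removed by a growth model. Values were natural-logged and averaged per well. Mean size was then plate-adjusted by subtracting the vehicle control mean and adding 6.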

| Compound | lowest effective concentration [1] | mean nematode size ln(EXT) (ln) ([2]; 0.5 µM) | mean nematode size ln(EXT) (ln) ([2]; 1 µM) | mean nematode size ln(EXT) (ln) ([2]; 5 µM) | mean nematode size ln(EXT) (ln) ([2]; 10 µM) | mean nematode size ln(EXT) (ln) ([2]; 50 µM) | mean nematode size ln(EXT) (ln) ([2]; 100 µM) | mean nematode size ln(EXT) (ln) ([2]; 200 µM) |
| --- | --- | --- | --- | --- | --- | --- | --- | --- |
| COc1cc(-c2ccc(N)c(OC)c2)ccc1N [3,3'-Dimethoxybenzidine dihydrochloride] | > 200 µM | 5.89 | 5.91 | 5.9 | 5.65 | 5.72 | 5.41 | 6.4 |
| C/C=C\c1ccc(O)c(OC)c1 [Isoeugenol] | > 200 µM | 5.87 | 5.92 | 5.95 | 6.01 | 5.87 | 5.85 | 5.88 |
| Nc1cccc(N)c1 [1,3-Benzenediamine] | > 200 µM | 5.8 | 5.84 | 5.87 | 5.89 | 5.87 | 6 | 5.78 |
| CN(C)C(=O)Nc1cccc(C(F)(F)F)c1 [Fluometuron] | > 200 µM | 6.02 | 6.11 | 6.08 | 6.02 | 5.87 | 6.07 | 5.78 |
| CCCC(=O)OCCC(C)C [Isoamyl butyrate] | > 200 µM | 5.92 | 5.91 | 5.91 | 6.05 | 5.81 | 5.9 | 6.13 |
| Cc1ccccc1[N+](=O)[O-] [2-Nitrotoluene] | > 200 µM | 5.85 | 5.89 | 6.04 | 5.77 | 5.91 | 5.76 | 5.7 |
| CC1=C(C)S(=O)(=O)CCS1(=O)=O [Dimethipin] | > 200 µM | 5.96 | 5.96 | 5.91 | 5.93 | 5.98 | 6 | 5.93 |
| CC(C)CC(C)O (centres undefined) [4-Methyl-2-pentanol] | > 200 µM | 6.05 | 5.96 | 6.02 | 5.89 | 5.97 | 5.96 | 5.79 |
| Oc1ccc(O)cc1 [Hydroquinone] | > 200 µM | 5.99 | 6.02 | 6.04 | 6.02 | 6.1 | 6.09 | 5.72 |
| Nc1nc(N)nc(NC2CC2)n1 [Cyromazine] | > 200 µM | 5.45 | 5.67 | 5.56 | 5.57 | 5.42 | 6.14 | 5.94 |
| c1ccc2occc2c1 [2,3-Benzofuran] | > 200 µM | 6.06 | 6.1 | 6.03 | 6.13 | 6.02 | 6.03 | 5.78 |
| CCCCC(CC)C(=O)O (centres undefined) [2-Ethylhexanoic acid] | > 200 µM | 5.7 | 5.88 | 5.79 | 5.81 | 5.76 | 5.7 | 6.12 |
| CC(C)CCCCCCOC(=O)c1ccc(C(=O)OCCCCCCC(C)C)c(C(=O)OCCCCCCC(C)C)c1 [Triisononyl Trimellitate] | > 200 µM | 5.94 | 5.89 | 5.94 | 5.86 | 5.81 | 5.73 | 5.68 |
